Measured values published in ChEMBL document CHEMBL5291721, “A preclinical secondary pharmacology resource illuminates target-adverse drug reaction associations of marketed drugs” (Nat Commun, 2023).

Legend:
[1] = target: Growth hormone secretagogue receptor type 1 (Homo sapiens, UniProt Q92847)
[2] = target: T1, Gastrin/cholecystokinin type B receptor (Homo sapiens, UniProt P32239)
T1 sequence (P32239 whole entry): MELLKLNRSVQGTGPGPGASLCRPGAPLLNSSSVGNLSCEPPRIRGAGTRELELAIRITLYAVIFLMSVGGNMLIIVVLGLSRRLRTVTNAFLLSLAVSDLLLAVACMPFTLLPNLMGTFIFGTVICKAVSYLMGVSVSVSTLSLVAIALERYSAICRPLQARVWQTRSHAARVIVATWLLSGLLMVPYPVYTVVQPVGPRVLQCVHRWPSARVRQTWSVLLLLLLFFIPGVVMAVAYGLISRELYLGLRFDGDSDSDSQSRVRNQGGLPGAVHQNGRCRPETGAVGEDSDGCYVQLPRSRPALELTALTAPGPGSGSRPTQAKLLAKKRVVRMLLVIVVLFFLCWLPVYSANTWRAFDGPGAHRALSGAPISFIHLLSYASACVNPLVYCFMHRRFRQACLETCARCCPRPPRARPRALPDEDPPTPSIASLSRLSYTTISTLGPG

[3] = target: D(1A) dopamine receptor (Homo sapiens, UniProt P21728); format: functional, cell-based
[4] = target: T2, Prostaglandin G/H synthase 1 (Rattus norvegicus, UniProt Q63921); format: functional
T2 sequence (Q63921 whole entry): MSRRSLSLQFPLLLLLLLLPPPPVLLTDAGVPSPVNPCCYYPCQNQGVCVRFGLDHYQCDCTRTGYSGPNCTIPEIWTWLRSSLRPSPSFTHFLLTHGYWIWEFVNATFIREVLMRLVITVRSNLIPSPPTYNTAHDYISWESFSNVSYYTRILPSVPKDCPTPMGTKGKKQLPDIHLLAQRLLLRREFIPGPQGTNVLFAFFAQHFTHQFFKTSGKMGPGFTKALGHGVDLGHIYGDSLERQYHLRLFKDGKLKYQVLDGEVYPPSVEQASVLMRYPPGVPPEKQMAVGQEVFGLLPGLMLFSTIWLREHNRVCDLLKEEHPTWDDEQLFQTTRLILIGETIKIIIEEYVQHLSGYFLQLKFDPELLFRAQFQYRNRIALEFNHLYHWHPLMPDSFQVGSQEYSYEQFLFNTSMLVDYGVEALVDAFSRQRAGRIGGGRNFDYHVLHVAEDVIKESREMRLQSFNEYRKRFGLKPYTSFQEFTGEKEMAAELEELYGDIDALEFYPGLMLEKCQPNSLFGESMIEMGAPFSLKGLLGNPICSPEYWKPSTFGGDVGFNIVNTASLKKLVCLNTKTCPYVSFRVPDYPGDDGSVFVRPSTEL

[5] = target: T3, 5-hydroxytryptamine receptor 1A (Homo sapiens, UniProt P08908); format: functional, cell-based
T3 sequence (P08908 whole entry): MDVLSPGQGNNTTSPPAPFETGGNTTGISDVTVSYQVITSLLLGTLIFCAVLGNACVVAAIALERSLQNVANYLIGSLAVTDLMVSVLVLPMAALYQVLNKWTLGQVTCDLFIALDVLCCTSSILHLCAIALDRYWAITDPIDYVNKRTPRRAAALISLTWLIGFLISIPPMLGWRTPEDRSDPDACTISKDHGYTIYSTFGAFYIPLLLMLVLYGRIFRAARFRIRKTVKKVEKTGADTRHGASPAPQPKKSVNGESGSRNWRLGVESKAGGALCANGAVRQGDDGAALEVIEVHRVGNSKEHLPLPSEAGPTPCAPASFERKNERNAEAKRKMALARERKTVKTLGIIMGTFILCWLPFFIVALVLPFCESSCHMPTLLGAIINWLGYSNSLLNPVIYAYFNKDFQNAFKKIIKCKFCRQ

[6] = target: T4, Alpha-2C adrenergic receptor (Homo sapiens, UniProt P18825); format: functional
T4 sequence (P18825 whole entry): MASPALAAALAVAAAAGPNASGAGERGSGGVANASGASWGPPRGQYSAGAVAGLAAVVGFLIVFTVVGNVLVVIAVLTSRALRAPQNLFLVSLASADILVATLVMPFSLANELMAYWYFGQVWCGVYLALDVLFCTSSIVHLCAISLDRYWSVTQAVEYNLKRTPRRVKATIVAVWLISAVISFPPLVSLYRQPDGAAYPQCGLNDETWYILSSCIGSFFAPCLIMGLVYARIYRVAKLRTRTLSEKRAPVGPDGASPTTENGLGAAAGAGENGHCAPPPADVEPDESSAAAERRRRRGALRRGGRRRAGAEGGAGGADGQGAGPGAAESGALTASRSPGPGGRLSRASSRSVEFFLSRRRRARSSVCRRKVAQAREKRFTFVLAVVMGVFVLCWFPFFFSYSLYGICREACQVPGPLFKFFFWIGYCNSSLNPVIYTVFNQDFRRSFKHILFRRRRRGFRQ
Further: assay procedure not described here.

D(1A) dopamine receptor, sequence (P21728 whole entry): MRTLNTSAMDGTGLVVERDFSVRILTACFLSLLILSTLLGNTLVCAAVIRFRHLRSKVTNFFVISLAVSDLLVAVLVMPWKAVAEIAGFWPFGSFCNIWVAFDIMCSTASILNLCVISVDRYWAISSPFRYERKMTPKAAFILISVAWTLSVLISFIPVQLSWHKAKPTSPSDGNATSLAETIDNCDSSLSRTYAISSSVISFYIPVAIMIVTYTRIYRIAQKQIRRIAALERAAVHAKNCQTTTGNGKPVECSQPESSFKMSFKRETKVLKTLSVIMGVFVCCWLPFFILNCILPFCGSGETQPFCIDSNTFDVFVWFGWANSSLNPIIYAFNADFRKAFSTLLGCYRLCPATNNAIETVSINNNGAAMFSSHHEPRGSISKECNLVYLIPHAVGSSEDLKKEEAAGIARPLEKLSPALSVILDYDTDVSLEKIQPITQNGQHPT
Growth hormone secretagogue receptor type 1, sequence (Q92847 whole entry): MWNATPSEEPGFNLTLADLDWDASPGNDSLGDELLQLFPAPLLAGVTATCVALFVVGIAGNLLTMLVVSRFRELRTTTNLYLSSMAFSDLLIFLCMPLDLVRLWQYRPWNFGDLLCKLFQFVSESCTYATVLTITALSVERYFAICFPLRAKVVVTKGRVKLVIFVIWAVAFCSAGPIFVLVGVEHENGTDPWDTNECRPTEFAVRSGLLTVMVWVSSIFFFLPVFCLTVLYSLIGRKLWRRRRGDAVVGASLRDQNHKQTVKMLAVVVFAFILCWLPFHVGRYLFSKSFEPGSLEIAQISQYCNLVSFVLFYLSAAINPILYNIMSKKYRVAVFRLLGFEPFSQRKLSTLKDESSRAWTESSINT

| SMILES | AC50 [1] | AC50 [2] | AC50 [3] | AC50 [4] | AC50 [5] | AC50 [6] |
| --- | --- | --- | --- | --- | --- | --- |
| C[C@@H](NCCCc1cccc(C(F)(F)F)c1)c1cccc2ccccc12 | 10 µM | > 30 µM | > 30 µM | > 30 µM | > 30 µM | 0.83 µM |
| COc1ccc(CC2c3cc(OC)c(OC)cc3CC[N+]2(C)CCC(=O)OCCCCCOC(=O)CC[N+]2(C)CCc3cc(OC)c(OC)cc3C2Cc2ccc(OC)c(OC)c2)cc1OC (stereo unspecified) | 11.2 µM | > 30 µM | > 30 µM | > 30 µM | > 30 µM | 2.7 µM |
| CCN1CCN(Cc2ccc(Nc3ncc(F)c(-c4cc(F)c5nc(C)n(C(C)C)c5c4)n3)nc2)CC1 [ABEMACICLIB] | > 30 µM |  | > 30 µM | > 30 µM | > 30 µM | > 30 µM |
| COc1ccccc1Oc1c(NS(=O)(=O)c2ccc(C(C)(C)C)cc2)nc(-c2ncccn2)nc1OCCO [BOSENTAN] | > 30 µM | > 30 µM | > 10 µM | > 30 µM | > 10 µM | > 10 µM |
| CC(C(=O)O)c1ccc2c(c1)[nH]c1ccc(Cl)cc12 (stereo unspecified) [CARPROFEN] | > 30 µM | > 30 µM | > 10 µM | > 30 µM | > 10 µM | > 10 µM |
| COc1ccccc1OCCNCC(O)COc1cccc2[nH]c3ccccc3c12 (stereo unspecified) [CARVEDILOL] | 14.1 µM | > 30 µM | > 10 µM | > 30 µM | 0.04 µM | 0.061 µM |
| O=C1CCc2cc(OCCCCc3nnnn3C3CCCCC3)ccc2N1 [CILOSTAZOL] | > 30 µM | > 30 µM | > 30 µM | > 30 µM | > 30 µM | > 30 µM |
| C[C@@H](Oc1cc(-c2cnn(C3CCNCC3)c2)cnc1N)c1c(Cl)ccc(F)c1Cl [CRIZOTINIB] | 13.9 µM | > 30 µM | > 30 µM | 8.2 µM | > 10 µM | 1.2 µM |
| O=C1CN(/N=C/c2ccc(-c3ccc([N+](=O)[O-])cc3)o2)C(O)=N1 [DANTROLENE] | > 10 µM |  | > 10 µM | > 10 µM | > 10 µM | > 10 µM |
| CN(C)CC[C@@H](c1ccc(Cl)cc1)c1ccccn1 [DEXCHLORPHENIRAMINE] | > 30 µM | > 30 µM | > 30 µM | > 30 µM | > 30 µM | > 30 µM |
| CC(C)N(CCC(C(N)=O)(c1ccccc1)c1ccccn1)C(C)C (stereo unspecified) [DISOPYRAMIDE] | > 30 µM | > 30 µM | > 10 µM | 13.6 µM | > 10 µM | > 10 µM |
| C[C@H]1c2cccc(O)c2C(=O)C2=C(O)[C@]3(O)C(=O)C(C(N)=O)=C(O)[C@@H](N(C)C)[C@@H]3[C@@H](O)[C@@H]21 [DOXYCYCLINE] | > 30 µM | > 30 µM | > 10 µM | > 30 µM | > 10 µM | > 10 µM |
| C[C@]12C=CC(=O)N[C@@H]1CC[C@@H]1[C@@H]2CC[C@]2(C)[C@@H](C(=O)Nc3cc(C(F)(F)F)ccc3C(F)(F)F)CC[C@@H]12 [DUTASTERIDE] | > 10 µM |  | > 10 µM | > 10 µM | > 10 µM | > 10 µM |
| CN1C[C@H](C(=O)N[C@]2(C)O[C@@]3(O)[C@@H]4CCCN4C(=O)[C@H](Cc4ccccc4)N3C2=O)C=C2c3cccc4[nH]cc(c34)C[C@H]21 [ERGOTAMINE] | > 30 µM |  | 0.59 µM | 26 µM | 0.22 µM | 0.14 µM |
| CN(C)CCC[C@@]1(c2ccc(F)cc2)OCc2cc(C#N)ccc21 [ESCITALOPRAM] | > 30 µM | > 30 µM |  | > 30 µM | > 30 µM | > 30 µM |
| CN1C(C(=O)Nc2ccccn2)=C(O)c2ccccc2S1(=O)=O [PIROXICAM] | > 10 µM |  | > 10 µM |  | > 10 µM | > 30 µM |
| C=C[C@H]1C[N@@]2CC[C@H]1C[C@@H]2[C@@H](O)c1ccnc2ccc(OC)cc12 [QUINIDINE] | > 30 µM | > 30 µM | > 10 µM | > 30 µM | > 30 µM | 18 µM |
| CO[C@H]1/C=C/O[C@@]2(C)Oc3c(C)c(O)c4c(O)c(c(/C=N/N5CCN(C)CC5)c(O)c4c3C2=O)NC(=O)/C(C)=C\C=C\[C@H](C)[C@H](O)[C@@H](C)[C@@H](O)[C@@H](C)[C@H](OC(C)=O)[C@@H]1C [RIFAMPIN] | > 30 µM | > 30 µM | > 30 µM | > 30 µM | > 30 µM | 11 µM |
| CC(N)C12CC3CC(CC(C3)C1)C2 (stereo unspecified) [RIMANTADINE] | > 10 µM |  | > 10 µM | > 10 µM | > 10 µM | > 10 µM |
| CN(C)CCc1c[nH]c2ccc(Cn3cncn3)cc12 [RIZATRIPTAN] | > 30 µM | > 30 µM | > 30 µM | > 30 µM |  | 20.8 µM |
| CC(C)c1nc(N(C)S(C)(=O)=O)nc(-c2ccc(F)cc2)c1/C=C/[C@@H](O)C[C@@H](O)CC(=O)O [ROSUVASTATIN] | > 30 µM | > 30 µM | > 30 µM | > 30 µM | > 30 µM | > 30 µM |
| N[C@@H](CC(=O)N1CCn2c(nnc2C(F)(F)F)C1)Cc1cc(F)c(F)cc1F [SITAGLIPTIN] | > 30 µM | > 10 µM | > 30 µM | > 30 µM | > 30 µM | > 30 µM |
| OC[C@H]1O[C@@](CO)(O[C@H]2O[C@H](CO)[C@@H](O)[C@H](O)[C@H]2O)[C@@H](O)[C@@H]1O [SUCROSE] | > 30 µM | > 30 µM | > 30 µM | > 30 µM | > 30 µM |  |
| O=C1C(CC[S+]([O-])c2ccccc2)C(=O)N(c2ccccc2)N1c1ccccc1 (stereo unspecified) [SULFINPYRAZONE] | > 10 µM |  | > 10 µM | > 10 µM | > 30 µM | > 10 µM |
| CCN(CC)CCNC(=O)c1c(C)[nH]c(/C=C2\C(=O)Nc3ccc(F)cc32)c1C [SUNITINIB] | 7.2 µM | > 10 µM |  | > 30 µM | > 30 µM | 1.77 µM |
| COc1cc2nc(N3CCN(C(=O)C4CCCO4)CC3)nc(N)c2cc1OC (stereo unspecified) [TERAZOSIN] | > 30 µM | > 30 µM | > 10 µM | > 30 µM | > 10 µM |  |
| CC(C)(C)NCC(O)c1cc(O)cc(O)c1 (stereo unspecified) [TERBUTALINE] | > 30 µM | > 30 µM |  | > 30 µM |  |  |
| CC(S)C(=O)NCC(=O)O (stereo unspecified) [TIOPRONIN] | > 30 µM |  | > 30 µM | 3.3 µM | > 30 µM | > 30 µM |
| C[C@H](CCC(=O)O)[C@H]1CC[C@H]2[C@@H]3[C@@H](O)C[C@@H]4C[C@H](O)CC[C@]4(C)[C@H]3CC[C@]12C [URSODIOL] | > 30 µM |  | > 30 µM | > 30 µM | > 30 µM | > 30 µM |
